Some results are limits rather than exact numbers.

Common to all, as to format: biochemical
The target of test [1] is CDK6/CyclinD1 (Homo sapiens (Human), UniProt Q00534). Put plainly: CDK6/CyclinD1 kinase inhibitory activity (Caliper mobility shift). The conditions noted are these: read-out: CDK6/Cyclin D1 IC50.
Test [2] deals with CDK4/Cyclin D1 (Homo sapiens (Human), UniProt P11802). Put plainly: CDK4/CyclinD1 kinase inhibitory activity (Caliper mobility shift).
Test [3] deals with CDK2/CyclinE1 (Homo sapiens (Human), UniProt P24941). Put plainly: CDK2/CyclinE1 kinase inhibitory activity (Caliper mobility shift). The conditions noted are these: read-out: CDK2/Cyclin El IC50.
For test [4], the target named is CDK1/CyclinB (Homo sapiens (Human), UniProt P06493). Nature of the test: CDK1/CyclinB kinase inhibitory activity (Caliper mobility shift). The conditions noted are these: read-out: CDK1/Cyclin B1 IC50.
CDK1/CyclinB, sequence (P06493 whole entry): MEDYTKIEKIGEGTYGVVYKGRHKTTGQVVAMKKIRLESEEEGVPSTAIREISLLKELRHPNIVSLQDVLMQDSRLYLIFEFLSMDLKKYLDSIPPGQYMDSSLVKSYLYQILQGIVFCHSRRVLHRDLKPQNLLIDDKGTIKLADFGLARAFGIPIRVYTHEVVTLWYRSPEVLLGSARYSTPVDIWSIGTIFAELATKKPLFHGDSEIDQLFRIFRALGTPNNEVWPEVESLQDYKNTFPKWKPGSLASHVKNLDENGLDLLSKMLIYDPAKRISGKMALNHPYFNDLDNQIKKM
CDK1/CyclinB, sequence (P14635 whole entry partner): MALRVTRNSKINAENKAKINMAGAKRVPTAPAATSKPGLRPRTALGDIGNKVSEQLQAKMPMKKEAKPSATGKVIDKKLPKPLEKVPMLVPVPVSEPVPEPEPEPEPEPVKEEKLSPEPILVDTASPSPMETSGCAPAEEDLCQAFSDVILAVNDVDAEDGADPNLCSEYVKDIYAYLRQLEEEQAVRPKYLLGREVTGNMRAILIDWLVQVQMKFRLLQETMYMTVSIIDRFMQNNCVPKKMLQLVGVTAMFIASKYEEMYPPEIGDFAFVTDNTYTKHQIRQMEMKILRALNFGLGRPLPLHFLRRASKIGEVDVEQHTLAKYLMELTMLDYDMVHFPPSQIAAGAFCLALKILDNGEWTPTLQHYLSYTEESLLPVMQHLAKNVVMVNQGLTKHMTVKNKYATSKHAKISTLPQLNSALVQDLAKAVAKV
The target of test [5] is CDK7/CyclinH/MAT1 (Homo sapiens (Human), UniProt P50613). Nature of the test: CDK7/CyclinH/MAT1 kinase inhibitory activity (Caliper mobility shift).
CDK7/CyclinH/MAT1, sequence (P50613 whole entry): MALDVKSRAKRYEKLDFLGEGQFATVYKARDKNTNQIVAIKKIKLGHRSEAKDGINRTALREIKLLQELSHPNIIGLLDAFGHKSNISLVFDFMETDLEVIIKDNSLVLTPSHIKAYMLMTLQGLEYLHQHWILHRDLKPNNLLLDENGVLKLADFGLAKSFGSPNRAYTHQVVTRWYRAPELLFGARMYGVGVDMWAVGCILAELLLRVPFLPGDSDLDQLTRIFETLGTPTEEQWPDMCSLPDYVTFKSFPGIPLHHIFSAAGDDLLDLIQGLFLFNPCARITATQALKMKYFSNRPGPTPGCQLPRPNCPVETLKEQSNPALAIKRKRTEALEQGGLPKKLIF
CDK7/CyclinH/MAT1, sequence (P51946 whole entry partner): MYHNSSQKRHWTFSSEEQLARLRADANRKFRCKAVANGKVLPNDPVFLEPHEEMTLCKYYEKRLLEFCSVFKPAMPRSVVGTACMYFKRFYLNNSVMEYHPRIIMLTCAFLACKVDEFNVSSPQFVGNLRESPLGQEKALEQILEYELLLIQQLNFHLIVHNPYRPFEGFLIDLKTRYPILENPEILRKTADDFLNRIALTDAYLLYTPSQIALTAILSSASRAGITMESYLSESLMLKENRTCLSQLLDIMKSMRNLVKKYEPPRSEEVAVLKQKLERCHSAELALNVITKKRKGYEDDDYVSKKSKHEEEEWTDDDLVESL
CDK7/CyclinH/MAT1, sequence (P51948 whole entry partner): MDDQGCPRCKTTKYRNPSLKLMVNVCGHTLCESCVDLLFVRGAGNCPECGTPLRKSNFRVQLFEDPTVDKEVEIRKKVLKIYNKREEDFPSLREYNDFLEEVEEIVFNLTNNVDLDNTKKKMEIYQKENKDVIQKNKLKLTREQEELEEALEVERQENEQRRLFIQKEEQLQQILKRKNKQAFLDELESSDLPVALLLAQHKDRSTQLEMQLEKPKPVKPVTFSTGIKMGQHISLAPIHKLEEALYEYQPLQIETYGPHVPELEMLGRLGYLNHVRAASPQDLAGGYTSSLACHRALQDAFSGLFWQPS
Test [6] addresses CDK9/CyclinT1 (Homo sapiens (Human), UniProt P50750). Put plainly: CDK9/CyclinT1 kinase inhibitory activity (Caliper mobility shift). The conditions noted are these: read-out: CDK9/Cyclin T1 IC50.

CDK6/CyclinD1, sequence (Q00534 whole entry): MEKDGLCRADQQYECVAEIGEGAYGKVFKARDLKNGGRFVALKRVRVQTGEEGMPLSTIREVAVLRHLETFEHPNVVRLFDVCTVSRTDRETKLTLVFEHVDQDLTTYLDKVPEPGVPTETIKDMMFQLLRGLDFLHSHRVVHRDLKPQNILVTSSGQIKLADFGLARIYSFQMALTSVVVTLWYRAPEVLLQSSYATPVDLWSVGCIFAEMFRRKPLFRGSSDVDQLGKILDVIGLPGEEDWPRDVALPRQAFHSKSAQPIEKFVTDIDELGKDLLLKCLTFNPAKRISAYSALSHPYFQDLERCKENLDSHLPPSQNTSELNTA
CDK6/CyclinD1, sequence (P24385 whole entry partner): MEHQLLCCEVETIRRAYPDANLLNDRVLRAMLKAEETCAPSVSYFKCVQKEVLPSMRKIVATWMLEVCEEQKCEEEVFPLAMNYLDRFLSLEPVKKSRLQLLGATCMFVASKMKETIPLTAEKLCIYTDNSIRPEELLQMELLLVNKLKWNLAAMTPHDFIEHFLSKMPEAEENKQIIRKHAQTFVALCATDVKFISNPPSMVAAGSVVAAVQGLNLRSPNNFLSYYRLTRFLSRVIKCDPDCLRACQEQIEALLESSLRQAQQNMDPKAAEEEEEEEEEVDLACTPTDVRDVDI
CDK4/Cyclin D1, sequence (P11802 whole entry): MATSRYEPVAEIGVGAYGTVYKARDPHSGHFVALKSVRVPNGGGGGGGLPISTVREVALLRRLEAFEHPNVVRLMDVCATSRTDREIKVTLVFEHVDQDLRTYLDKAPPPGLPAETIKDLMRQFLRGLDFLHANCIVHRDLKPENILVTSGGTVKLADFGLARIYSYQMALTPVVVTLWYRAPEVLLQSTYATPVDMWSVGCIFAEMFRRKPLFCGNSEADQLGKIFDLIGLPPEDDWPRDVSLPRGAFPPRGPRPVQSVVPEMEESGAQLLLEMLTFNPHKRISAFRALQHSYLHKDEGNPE
CDK4/Cyclin D1, sequence (P24385 whole entry partner): as the sequence (P24385 whole entry partner) above
CDK9/CyclinT1, sequence (P50750 whole entry): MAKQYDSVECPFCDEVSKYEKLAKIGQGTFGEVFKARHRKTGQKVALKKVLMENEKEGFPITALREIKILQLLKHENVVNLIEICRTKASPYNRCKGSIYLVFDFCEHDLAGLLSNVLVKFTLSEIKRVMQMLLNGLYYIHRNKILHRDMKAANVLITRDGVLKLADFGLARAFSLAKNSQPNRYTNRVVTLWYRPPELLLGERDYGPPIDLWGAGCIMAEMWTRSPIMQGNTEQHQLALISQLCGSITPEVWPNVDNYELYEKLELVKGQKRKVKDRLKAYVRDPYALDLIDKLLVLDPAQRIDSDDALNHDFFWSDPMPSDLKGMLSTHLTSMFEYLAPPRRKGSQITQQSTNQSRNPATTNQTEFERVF
CDK9/CyclinT1, sequence (O60563 whole entry partner): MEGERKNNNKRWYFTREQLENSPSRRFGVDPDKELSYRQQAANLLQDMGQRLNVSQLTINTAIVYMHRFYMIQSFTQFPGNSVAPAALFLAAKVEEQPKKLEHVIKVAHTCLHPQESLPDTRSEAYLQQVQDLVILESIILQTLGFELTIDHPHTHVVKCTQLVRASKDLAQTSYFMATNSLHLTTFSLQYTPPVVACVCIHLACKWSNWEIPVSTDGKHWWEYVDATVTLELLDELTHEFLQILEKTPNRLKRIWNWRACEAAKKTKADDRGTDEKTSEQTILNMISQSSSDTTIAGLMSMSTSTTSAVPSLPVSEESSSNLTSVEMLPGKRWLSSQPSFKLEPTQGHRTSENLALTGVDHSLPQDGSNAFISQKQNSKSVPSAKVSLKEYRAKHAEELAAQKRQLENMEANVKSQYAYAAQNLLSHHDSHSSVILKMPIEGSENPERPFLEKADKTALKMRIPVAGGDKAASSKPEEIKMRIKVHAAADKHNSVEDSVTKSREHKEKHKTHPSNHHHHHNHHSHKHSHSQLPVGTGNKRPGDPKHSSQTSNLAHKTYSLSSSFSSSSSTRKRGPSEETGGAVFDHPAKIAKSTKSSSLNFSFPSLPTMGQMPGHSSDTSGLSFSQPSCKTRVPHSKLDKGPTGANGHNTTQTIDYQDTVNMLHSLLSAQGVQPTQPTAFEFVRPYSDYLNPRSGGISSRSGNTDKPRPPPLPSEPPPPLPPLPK

Turning to `N#Cc1cnc(Nc2ccc(S(N)(=O)=O)cc2)nc1N1CCC(O)CC1` [Example 82], the IC50 is 0.1 to 1 µM in test [1]; 0.1 to 1 µM in test [2]; 0.01 to 0.1 µM in test [3]; 0.1 to 1 µM in test [4]; no less than 1 µM in test [5]; 0.1 to 1 µM in test [6].
In the case of `Cn1cc(S(=O)(=O)N2CCC(Nc3ncc(C#N)c(O[C@@H]4CCC(F)(F)C[C@]4(C)O)n3)CC2)cn1` (relative stereo) [Example 7a, cis-4-((4,4-difluoro-2-hydroxy-2-methylcyclohexyl)oxy)-2-((1-((1-methyl-1H-pyrazol-4-yl)sulfonyl)piperidin-4-yl)amino)pyrimidine-5-carbonitrile], the IC50 in test [1] was less than 0.01 µM; in test [2] it was less than 0.01 µM; in test [3], less than 0.01 µM; in test [4], less than 0.01 µM; in test [5] it was 0.01 to 0.1 µM; in test [6], 0.1 to 1 µM.
Consider `Cn1cc(S(=O)(=O)N2CCC(Nc3ncc(C#N)c(OC4CC5(CCC5)C4)n3)CC2)cn1` [Example 59], for which the IC50 in test [1] is 0.01 to 0.1 µM; in test [2] it was less than 0.01 µM; in test [3], less than 0.01 µM; in test [4] it was 0.01 to 0.1 µM; in test [5] it was 0.1 to 1 µM; in test [6], 0.1 to 1 µM.
Turning to `Cc1cnc(Nc2ccc(S(N)(=O)=O)cc2)nc1O[C@@H]1CCC[C@@H]1O` (single isomer, unassigned) [Example 132a, cis-4-((4-((2-hydroxycyclopentyl)oxy)-5-methylpyrimidin-2-yl)amino)benzenesulfonamide], the IC50 in test [1] was 0.1 to 1 µM; in test [2] it was 0.1 to 1 µM; in test [3] it was less than 0.01 µM; in test [4] it was 0.1 to 1 µM; in test [5] it was 0.1 to 1 µM; in test [6], 0.1 to 1 µM.
As to `CS(=O)(=O)N1CCC(Nc2ncc(C(F)(F)F)c(OC3CCCCC3)n2)CC1` [Example 127], the IC50 in test [1] is 0.1 to 1 µM; in test [2], less than 0.01 µM; in test [3], less than 0.01 µM; in test [4] it was 0.01 to 0.1 µM; in test [5], 0.1 to 1 µM; in test [6], 0.01 to 0.1 µM.
Regarding `CC1(O)CCCC1Oc1nc(NC2CCN(S(=O)(=O)CF)CC2)ncc1C#N` (single isomer, unassigned) [Example 37a], the IC50 in test [1] was 0.01 to 0.1 µM; in test [2] it was less than 0.01 µM; in test [3] it was less than 0.01 µM; in test [4], 0.01 to 0.1 µM; in test [5], 0.01 to 0.1 µM; in test [6], 0.1 to 1 µM.
Regarding `N#Cc1cnc(Nc2ccc(S(N)(=O)=O)cc2)nc1OC1CCCC1O` (single isomer, unassigned) [Example 20b], the IC50 in test [1] was 0.1 to 1 µM; in test [2] it was 0.1 to 1 µM; in test [3] it was 0.01 to 0.1 µM; in test [4], 0.1 to 1 µM; in test [5] it was no less than 1 µM; in test [6], 0.1 to 1 µM.
Turning to `NS(=O)(=O)c1ccc(Nc2ncc(C(F)(F)F)c(OC3CCCCC3O)n2)cc1` (single isomer, unassigned) [Example 111b], the IC50 is 0.01 to 0.1 µM in test [1]; 0.01 to 0.1 µM in test [2]; less than 0.01 µM in test [3]; less than 0.01 µM in test [4]; 0.1 to 1 µM in test [5]; 0.01 to 0.1 µM in test [6].
As to `CNS(=O)(=O)c1ccc(Nc2ncc(C#N)c(OC3CCCC3(C)O)n2)cc1` (single isomer, unassigned) [Example 34a], the IC50 in test [1] was 0.01 to 0.1 µM; in test [2] it was 0.01 to 0.1 µM; in test [3], less than 0.01 µM; in test [4], less than 0.01 µM; in test [5], 0.01 to 0.1 µM; in test [6] it was 0.1 to 1 µM.
Regarding `CNS(=O)(=O)c1ccc(Nc2ncc(C(F)(F)F)c(OC3CCCC3O)n2)cc1` (single isomer, unassigned) [Example 105a], the IC50 in test [1] is 0.1 to 1 µM; in test [2], 0.1 to 1 µM; in test [3], less than 0.01 µM; in test [4] it was 0.01 to 0.1 µM; in test [5], 0.1 to 1 µM; in test [6], 0.1 to 1 µM.
`CC1(O)COCCC1Oc1nc(NC2CCN(S(C)(=O)=O)CC2)ncc1C(F)(F)F` (single isomer, unassigned) [Example 124a]: the IC50 in test [1] was 0.01 to 0.1 µM; in test [2] it was 0.01 to 0.1 µM; in test [3] it was less than 0.01 µM; in test [4] it was 0.01 to 0.1 µM; in test [5], less than 0.01 µM; in test [6], 0.01 to 0.1 µM.
Regarding `CC1(O)CCCC1Oc1nc(Nc2ccc(S(N)(=O)=O)cc2)ncc1C1CC1` (single isomer, unassigned) [Example 154a], the IC50 in test [1] is 0.01 to 0.1 µM; in test [2], 0.01 to 0.1 µM; in test [3], less than 0.01 µM; in test [4], less than 0.01 µM; in test [5], 0.01 to 0.1 µM; in test [6], 0.01 to 0.1 µM.
Regarding `C[C@]1(O)CCC[C@H]1Oc1nc(NC2CCN(S(C)(=O)=O)CC2)ncc1C#N` (relative stereo) [Example 3b, cis-4-((2-hydroxy-2-methylcyclopentyl)oxy)-2-((1-(methylsulfonyl)piperidin-4-yl)amino)pyrimidine-5-carbonitrile], the IC50 in test [1] was less than 0.01 µM; in test [2], less than 0.01 µM; in test [3], less than 0.01 µM; in test [4] it was 0.01 to 0.1 µM; in test [5], 0.01 to 0.1 µM; in test [6], 0.1 to 1 µM.
Consider `CC1(O)CCCC1Oc1nc(NC2CCN(S(=O)(=O)CC3CC3)CC2)ncc1C#N` (single isomer, unassigned) [Example 38a], for which the IC50 in test [1] was less than 0.01 µM; in test [2], less than 0.01 µM; in test [3] it was less than 0.01 µM; in test [4], 0.01 to 0.1 µM; in test [5] it was 0.01 to 0.1 µM; in test [6], 0.1 to 1 µM.
For the compound `Cn1cc(S(=O)(=O)N2CCC(Nc3ncc(C#N)c(OCC4(C)CCC4)n3)CC2)cn1` [Example 60], the IC50 was 0.01 to 0.1 µM in test [1]; less than 0.01 µM in test [2]; less than 0.01 µM in test [3]; less than 0.01 µM in test [4]; 0.1 to 1 µM in test [5]; 0.1 to 1 µM in test [6].
On to `[2H]C([2H])([2H])NS(=O)(=O)c1ccc(Nc2ncc(C(F)(F)F)c(OC3CCCC3)n2)cc1` [Example 108], for which the IC50 is 0.1 to 1 µM in test [1]; 0.01 to 0.1 µM in test [2]; less than 0.01 µM in test [3]; 0.01 to 0.1 µM in test [4]; no less than 1 µM in test [5]; no less than 1 µM in test [6].
For the compound `[2H]C([2H])([2H])NS(=O)(=O)c1ccc(Nc2ncc(C#N)c(OC3CCCOCC3)n2)cc1` (single isomer, unassigned) [Example 33a], the IC50 is 0.1 to 1 µM in test [1]; 0.01 to 0.1 µM in test [2]; less than 0.01 µM in test [3]; 0.01 to 0.1 µM in test [4]; no less than 1 µM in test [5]; 0.1 to 1 µM in test [6].
Turning to `[2H]C1([2H])CC(O)C(Oc2nc(Nc3ccc(S(=O)(=O)NC([2H])([2H])[2H])cc3)ncc2C(F)(F)F)C1` (single isomer, unassigned) [Example 110a], the IC50 in test [1] is 0.01 to 0.1 µM; in test [2], 0.1 to 1 µM; in test [3] it was less than 0.01 µM; in test [4] it was 0.01 to 0.1 µM; in test [5], 0.1 to 1 µM; in test [6], 0.1 to 1 µM.
In the case of `CNS(=O)(=O)N1CCC(Nc2ncc(C(F)(F)F)c(OC3CCCCCC3O)n2)CC1` (single isomer, unassigned) [Example 123b], the IC50 in test [1] was 0.01 to 0.1 µM; in test [2], 0.01 to 0.1 µM; in test [3], less than 0.01 µM; in test [4], 0.01 to 0.1 µM; in test [5], 0.1 to 1 µM; in test [6], 0.1 to 1 µM.
`CC(C)NS(=O)(=O)c1ccc(Nc2ncc(C(F)(F)F)c(OC3CCCC3O)n2)cc1` (single isomer, unassigned) [Example 106a]: the IC50 is 0.1 to 1 µM in test [1]; 0.01 to 0.1 µM in test [2]; less than 0.01 µM in test [3]; less than 0.01 µM in test [4]; 0.1 to 1 µM in test [5]; 0.01 to 0.1 µM in test [6].
`CC1(O)CCCC1Oc1nc(NC2CCN(S(=O)(=O)CC3CCOC3)CC2)ncc1C#N` (single isomer, unassigned) [Example 40a]: the IC50 was less than 0.01 µM in test [1]; less than 0.01 µM in test [2]; less than 0.01 µM in test [3]; 0.01 to 0.1 µM in test [4]; 0.1 to 1 µM in test [5]; 0.1 to 1 µM in test [6].
In the case of `N#Cc1cnc(Nc2ccc(S(N)(=O)=O)cc2)nc1-c1cccc(F)c1` [Example 95], the IC50 in test [1] is no less than 1 µM; in test [2] it was 0.1 to 1 µM; in test [3], 0.01 to 0.1 µM; in test [4], 0.01 to 0.1 µM; in test [5], no less than 1 µM.
As to `[2H]C([2H])([2H])NS(=O)(=O)c1ccc(Nc2ncc(C(F)(F)F)c(OC3CCOCCC3O)n2)cc1` (single isomer, unassigned) [Example 102a, 4-((4-((5-hydroxyoxepan-4-yl)oxy)-5-(trifluoromethyl)pyrimidin-2-yl)amino)-N-(methyl-d3)benzenesulfonamide], the IC50 in test [1] is no less than 1 µM; in test [2], no less than 1 µM; in test [3], less than 0.01 µM; in test [4], 0.1 to 1 µM; in test [5], no less than 1 µM.
Regarding `CNc1cccc(-c2nc(Nc3ccc(S(N)(=O)=O)cc3)ncc2C#N)c1` [Example 97], the IC50 is no less than 1 µM in test [1]; 0.1 to 1 µM in test [2]; 0.01 to 0.1 µM in test [3]; 0.1 to 1 µM in test [4]; no less than 1 µM in test [5].
With `CC1(O)CCCC1Oc1nc(NC2CCN(S(=O)(=O)CC3CCOC3)CC2)ncc1C#N` (single isomer, unassigned) [Example 40b], the IC50 in test [1] was 0.01 to 0.1 µM; in test [2] it was 0.01 to 0.1 µM; in test [3], 0.01 to 0.1 µM; in test [5], no less than 1 µM.

For the origin of these results see patent US20240166635A1, “AMINOHETEROARYL KINASE INHIBITORS” (Anrui Biomedical Technology (Guangzhou) Co.,Ltd., priority 2020, published 2024).
